Patent publication US20050085491A1, “Novel crystalline forms of valacyclovir hydrochloride” (priority 2003, published 2005)
Entries after “also recorded” stand apart in the source; their conditions may differ.

Assays:
[1] = oral administration; cited from earlier work
[2] = oral administration, healthy adults; cited from earlier work
[3] = transformation of crystalline form on drying or squeezing (form identified by XRD); format: physicochemical
Protocol: All powder x-ray diffraction patterns were obtained by methods known in the art using a Scintag X′TRA X-ray powder diffractometer, equipped with a solid state Si(Li) detector thermoelectrically cooled, at scanning speed of 3° min.^−1. The scanning range was 2-40 degrees two-theta. Copper radiation of […] was used. The term x-ray diffraction “peaks” as used herein refers to x-ray diffraction reflections measured using an x-ray powder diffractometer. “Wet” samples (i.e. samples not dried) were analyzed “as is”. Dry samples were gently ground before analysis.
In yet another embodiment, the present invention relates to transformation, especially by drying or thermal treatment, of herein disclosed crystalline forms of valacyclovir hydrochloride to valacyclovir hydrochloride form I.
In a further embodiment, the present invention relates to transformation, especially by drying or squeezing, of herein disclosed crystalline forms of valacyclovir hydrochloride to valacyclovir hydrochloride for IV.

[4] = transformation of crystalline form on exposure to relative humidity; format: physicochemical; details: atmosphere of about 50% relative humidity for a day or more
[5] = drying, conditions not stated, hydrochloride
[6] = drying at 50° to 60° C. for about 30 min or more, hydrochloride

## CC(C)[C@H](N)C(=O)OCCOCn1cnc2c(=O)[nH]c(N)nc21 [valacyclovir, 1-valine, 2-[(2-amino-1,6-dihydro-6-oxo-9H-purin-9-yl)methoxy]ethyl ester]
[1]
  absorption from the gastrointestinal tract: rapidly absorbed
[2]
  conversion to acyclovir: converted rapidly and virtually completely to acyclovir

## CC(C)[C@H](N)C(=O)OCCOCn1cnc2c(=O)nc(N)[nH]c21.Cl [form V, valacyclovir hydrochloride]
[3]; dried at 50° C. under vacuum, hydrochloride
  crystalline form before and after drying: valacyclovir hydrochloride form V
[3]; [5]
  crystalline form obtained on drying: form V

## CC(C)[C@H](N)C(=O)OCCOCn1cnc2c(=O)nc(N)[nH]c21.Cl [form XII, valacyclovir hydrochloride]
[4]
  crystalline form obtained on exposure to humidity: transformation to valacyclovir hydrochloride form I

## CC(C)[C@H](N)C(=O)OCCOCn1cnc2c(=O)nc(N)[nH]c21.Cl [form IX, valacyclovir hydrochloride]
[3]; [6]
  crystalline form obtained on drying: yields an anhydrous form of valacyclovir hydrochloride
[3]; [5]
  crystalline form obtained on drying: mixture of form I and anhydrous form

## CC(C)[C@H](N)C(=O)OCCOCn1cnc2c(=O)nc(N)[nH]c21.Cl [form X, valacyclovir hydrochloride]
[3]; [6]
  crystalline form obtained on drying: yields a hydrate of valacyclovir form I

## CC(C)[C@H](N)C(=O)OCCOCn1cnc2c(=O)nc(N)[nH]c21.Cl [form XI, valacyclovir hydrochloride]
[3]; about 700 mm Hg, about 35° C., after 16 hours, about 35% humidity
  crystalline form obtained on drying: form VIII
[3]; about 700 mm Hg, about 35° C., after 20 hours, 30% humidity
  crystalline form obtained on drying: form IV
[3]; [5]
  crystalline form obtained on drying: transformed to form I; also recorded: converted to form I
[3]; vacuum of 250-350 mm Hg at about 35 degrees up to humidity of about 20%
  crystalline form obtained on drying: form IV
[3]; water content reduced to about 15 to 25%, e.g. by drying at about 30° to about 50° C.
  crystalline form obtained on reducing the water content: transformation to form IV
[3]; wet sample squeezed on a Buchner filter up to humidity of about 20%
  crystalline form obtained on squeezing: form VIII

## CC(C)[C@H](N)C(=O)OCCOCn1cnc2c(=O)nc(N)[nH]c21.Cl [form VIII, valacyclovir hydrochloride]
[3]; drying at 20° to 120° C. for at least about 30 min
  crystalline form obtained on drying: yields a hydrate of valacyclovir hydrochloride form I
[3]; drying at 50-120° C.
  crystalline form obtained on drying: resulted in form I
